According to EP0407583A1, “DERIVATIVES OF DICHLOR[…] ACYLAMIDO[…] AND INSECTICIDAL, FU[…] HEMATOCIDAL PREPARATIONS BASED ON THEM” (priority 1989, dated 1990):

How the values were obtained:
[1] = test system: gall nematodes; assay: Nematocidal effect, field test on affected tomato plants; type: in vivo; details: 5 m^2 plots of tomato plants affected by nematodes
Protocol: In the field conditions, the plots of 5 m^2 in size of tomato plants affected by nematodes were treated with the claimed nematocidal compositions and the known nematocides.

[2] = test system: invasion larvae of gall nematodes; assay: Nematocidal effect on invasion larvae, experimental (object glass) test; type: in vivo; details: 1% solution in distilled water; 100 invasion larvae; 24 hours
Protocol: A nematocidal effect of the composition, according to the invention, was tested on invasion larvae of gall nematodes. To this end, 1 droplet of a suspension containing 100 invasion larvae of gall nematodes was placed onto the object glasses with cells. 1 droplet of the composition of the invention was added thereinto. 1 drop of distilled water was added to the control cell instead of the composition, according to the invention. The glasses with test and control cells were placed onto Petri dish with a moisten ashless filter, and 24 hours later the killed nematodes were recorded. The tests were 3-fold repeated. The study of a nematocidal activity was conducted in comparison with a known nematocidal composition based on 0,0-dimethyl-0-/2-(N,N'-diethylcarbamoyl)-1-methyl-2-chlorovinyl/ /phosphate.

[3] = Solubility (qualitative); details: water, alcohols, acetone
[4] = test system: Candida tropicalis; assay: Fungicidal activity, large-scale test on contaminated surfaces and fabrics; type: cell-based; details: composition 0.01 % by mass; surfaces of ceramics, metal, wood, rubber, fabrics
Protocol: (§1) The large-scale tests were carried out by using Candida albicans and Candida tropicalis strains 2-day culture of which was diluted with an isotonic solution of sodium chloride to the concentration of 5x10^7 cells in 1 ml.
(§2) The suspended cell culture was applied onto the surface (7 mm in diameter) of articles made of ceramics, metal, wood and rubber as well as cotton, flannel woollen fabrics which were presterillized.
(§3) In a day after incubating from the treated surfaces, the washings were taken with a cotton-gauze tampon wetted with Sabouraud^ts liquid medium, immersed into the tubes with a similar medium and placed into a thermostat at 37 °C for two days. Thereafter, the inoculum was introduced in Sabouraud's stiff agar, and the growth records were made by a conventional procedure.

[5] = test system: Candida albicans; assay: as above; type: cell-based; details: composition 0.01 % by mass; surfaces of ceramics, metal, wood, rubber, fabrics
Protocol: as §1, §2, §3

[6] = test system: Candida albicans; assay: Fungicidal activity, laboratory test on Sabouraud medium; type: cell-based; details: composition 0.01 % by mass in distilled water
[7] = test system: Candida tropicalis; assay: as above; type: cell-based; details: composition 0.01 % by mass in distilled water
Protocol: A fungicidal composition based on this compound was prepared which was a solution of it in distilled water at the concentration pf 0.01 % by mass. A fungicidal activity of the composition, according to the invention, was tested in laboratory conditions for inhibiting the growth of fungi such as Candida tropicalis affecting the macosal and skin coats, and internals.
To this, the Petri dishes containing the Sabouraud growth medium were inoculated with a suspension of microorganisms at the concentration of 5x10^7 cells of fungi in 1 ml.
The restricted surface areas (7 mm in diameter) were coated with the composition by means of a small metal spatula 4x4 mm in size. In a day of incubating at 37 °C in a thermostat, the composition inhibited the growth of yeast--like fungi. An antifungal activity of the composition was specified by a method of 10-fold serial dilution using Sabouraud's liquid medium in 2 ml of which 2x10^5 cells were introduced. After two days of incubation in the thermostat at 34 °C, a minimum dilution of the substance exerting a fungicidal effect was determined.

Compound	Death of larvae, %, conditions field [1]	Death of larvae, %, conditions experimental [2]	solubility [3]	Inhibition of growth of fungal colonies, % Candida tropicalis tests large-scale [4]	Inhibition of growth of fungal colonies, % Candida albicans tests large-scale [5]	Inhibition of growth of fungal colonies, % Candida albicans tests laboratory [6]	Inhibition of growth of fungal colonies, % Candida tropicalis tests laboratory [7]
O=C(NP(=O)(Nc1ccc(Cl)cc1)Nc1ccc(Cl)cc1)c1ccc(Br)cc1 [Example 18, para-bromobenzoylamidophosphoric acid di-para-chloroanilide]	92%	89%	soluble in water, alcohols, acetone				
O=C(NP(=O)(NNc1ccccc1)NNc1ccccc1)c1ccc(Cl)cc1 [Example 10, para--chlorobenzoylamidophosphoric acid diphenyl hydrazide]			soluble in water, alcohols, acetone	100%	100%	100%	0%
